The text below walks through data of patent US7652057B2, “Pyrazolones as 11b-HSD1 inhibitors for diabetes” (Hoffman-La Roche Inc., priority 2005, dated 2010).

The assay deals with T1, human 11beta-HSD1 (Homo sapiens, UniProt P28845).
T1 construct: made in house; host or cells: HEK293 cells (ATCC CRL-1573), transient transfection with a pcDNA3 construct; microsomal fraction
The assay can be described thus: Microsome assay (cortisone to cortisol conversion, ELISA). The format is biochemical. The settings on record: microsomes from HEK293 cells transiently expressing human 11beta-HSD1; Cortisone 50-200 nM, NADPH 1 mM, 60 min at 37° C.; read-out: h 11-beta-HSD 1 IC50. As for the experimental part: The cDNA encoding the human 11beta-HSD1 protein was cloned into the expression vector pcDNA3 ([…]). This construct (for details see Alex Odermatt et al.; J Biol Chem., 1999, Vol. 274, Issue 40, 28762-28770) was used to transiently express the protein in HEK293 cells (ATCC number: CRL-1573, described in Graham, F. L., Smiley, J., Russell, W. C., Nairn, R.; (1977)) using lipofectamine. 48 h after transfection cells were washed twice with ice-cold PBS (Phosphate buffered Saline). To 1 volume of cell suspension in PBS 2 volumes of ice-cold lysis buffer (50 mM Tris; pH7.5; 1 mM EDTA; 100 mM NaCl) were added. The cells were lysed by Potter-homogenization (20 strokes). The resulting homogenate was sonicated wit a tip sonicator (10% output; 2×30 sec.) and cleared by a low speed centrifugation (10 min×9000 g; 4° C.). The microsomal fraction was collected by a high speed centrifugation (60 min×110'000 g). […]
Microsomes isolated from HEK293 cells transiently expressing human 11beta-HSD1 (for details see above) were incubated in assay buffer (100 mM NaCl; 1 mM EDTA; 1 mM EGTA; 1 mM MgCl; 250 mM Sucrose; 20 mM Tris pH 7.4; Cortisone 50-200 nM and NADPH 1 mM) together with different concentrations of test substances. […] The amount of Cortisol produced in this assay was determined using a commercially available, ELISA-based Cortisol-detection kit (Distributed by Assay Design, Inc.). […]

T1 sequence (P28845 whole entry): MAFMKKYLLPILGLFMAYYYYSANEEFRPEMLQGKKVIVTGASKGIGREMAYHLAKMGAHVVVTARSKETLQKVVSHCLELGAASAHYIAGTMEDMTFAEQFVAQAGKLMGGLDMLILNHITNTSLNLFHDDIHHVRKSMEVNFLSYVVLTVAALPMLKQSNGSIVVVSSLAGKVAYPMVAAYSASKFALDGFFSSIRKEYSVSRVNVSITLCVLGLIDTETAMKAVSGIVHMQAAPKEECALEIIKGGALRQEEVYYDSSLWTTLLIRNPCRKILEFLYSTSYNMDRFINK

Turning to `Cn1c(C2CC2)c(C2CC2)c(=O)n1-c1ccccc1` [Example 1, 4,5-Dicyclopropyl-1-methyl-2-phenyl-1,2-dihydro-pyrazol-3-one], the IC50 amounted to 21 nM.
As for `Cc1c(C23CC4CC(CC(C4)C2)C3)c(=O)n2n1CCCCC2` [Example 51, 2-adamantan-1-yl-3-methyl-6,7,8,9-tetrahydro-5H-pyrazolo[1,2-a][1,2]diazepin-1-one], the IC50 was determined as 133 nM.
